The values that follow are results of earlier work, collected in patent US11969522B2, “Use of immune modulators to improve nerve regeneration” (The Board of Regents of the University of Texas System, priority 2019, dated 2024).

One data set concerns CXCR4. To be noted: chronic exposure, rhesus macaques.
The test system of another data set is hematopoietic stem cells. Particulars: animal and human studies.

Molecules are shown by their SMILES.

Take `CCCCCc1cc(O)c2c(c1)OC(C)(C)[C@@H]1CCC(C)=C[C@@H]21` [THC]: in the data set on CXCR4, the “T lymphocyte CXCR4 expression on both CD4+ and CD8+ T lymphocytes” value was “increase”.

As for `c1cc(CN2CCCNCCNCCCNCC2)ccc1CN1CCCNCCNCCCNCC1` [Plerixafor], the “hematopoietic stem cell mobilization” value with hematopoietic stem cells is listed as “very efficient inducer of hematopoietic stem cell mobilization”.
